Columns and labels:
Test in all cases: relative viability (nuclei count vs DMSO), 5 days (fraction); higher = more cells survive
[1] = test system: NCI-H1792
In short: (§1)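 One day after seeding in 1536-well plates, lung cancer cell lines were dosed by pin tool. Dosing was either single-drug or a fixed anchor-drug dose plus five library-drug doses (not always all listed) in √10 steps. After 5 days, nuclei were stained in one fix-and-stain step and counted on 4× images, and relative viability is the nuclei count of treated wells over that of vehicle wells, given as the median of duplicate plates.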

[2] = test system: NCI-H1915
In short: as §1

[3] = test system: NCI-H2085
In short: as §1

[4] = test system: NCI-H2170
In short: as §1

[5] = test system: NCI-H1944
In short: as §1

[6] = test system: HCC-366
In short: as §1

[7] = test system: LC-2-ad
In short: as §1

[8] = test system: A-427
In short: as §1

[9] = test system: HCC-78
In short: as §1

[10] = test system: SK-LU-1
In short: as §1

[11] = test system: EPLC-272H
In short: as §1

[12] = test system: NCI-H460
In short: as §1

[13] = test system: COR-L 105
In short: as §1

[14] = test system: LU99A
In short: as §1

[15] = test system: NCI-H1793
In short: as §1

[16] = test system: SW 900
In short: as §1

[17] = test system: UMC-11
In short: as §1

[18] = test system: HOP-62
In short: as §1

[19] = test system: NCI-H358
In short: as §1

[20] = test system: NCI-H2009
In short: as §1

[21] = test system: LXF-289
In short: as §1

[22] = test system: NCI-H1666
In short: as §1

Structure (SMILES): O=c1cc(N2CCOCC2)oc2c(-c3cccc4c3sc3ccccc34)cccc12 + CC(=O)c1c(C)c2cnc(Nc3ccc(N4CCNCC4)cn3)nc2n(C2CCCC2)c1=O [Palbociclib] (partner 0.5 µM)
- relative viability ([1]; first compound 0.01 µM): 0.641
- relative viability ([1]; first compound 0.03162 µM): 0.577
- relative viability ([1]; first compound 0.1 µM): 0.658
- relative viability ([1]; first compound 0.3162 µM): 0.668
- relative viability ([1]; first compound 1 µM): 0.683
- relative viability ([2]; first compound 0.01 µM): 0.529
- relative viability ([2]; first compound 0.03162 µM): 0.555
- relative viability ([2]; first compound 0.1 µM): 0.61
- relative viability ([2]; first compound 0.3162 µM): 0.461
- relative viability ([2]; first compound 1 µM): 0.526
- relative viability ([3]; first compound 0.01 µM): 0.467
- relative viability ([3]; first compound 0.03162 µM): 0.455
- relative viability ([3]; first compound 0.1 µM): 0.492
- relative viability ([3]; first compound 0.3162 µM): 0.512
- relative viability ([3]; first compound 1 µM): 0.452
- relative viability ([4]; first compound 0.01 µM): 0.424
- relative viability ([4]; first compound 0.03162 µM): 0.422
- relative viability ([4]; first compound 0.1 µM): 0.408
- relative viability ([4]; first compound 0.3162 µM): 0.405
- relative viability ([4]; first compound 1 µM): 0.371
- relative viability ([5]; first compound 0.01 µM): 0.331
- relative viability ([5]; first compound 0.03162 µM): 0.332
- relative viability ([5]; first compound 0.1 µM): 0.363
- relative viability ([5]; first compound 0.3162 µM): 0.338
- relative viability ([5]; first compound 1 µM): 0.32
- relative viability ([6]; first compound 0.01 µM): 0.371
- relative viability ([6]; first compound 0.03162 µM): 0.417
- relative viability ([6]; first compound 0.1 µM): 0.409
- relative viability ([6]; first compound 0.3162 µM): 0.367
- relative viability ([6]; first compound 1 µM): 0.382
- relative viability ([7]; first compound 0.01 µM): 0.504
- relative viability ([7]; first compound 0.03162 µM): 0.5
- relative viability ([7]; first compound 0.1 µM): 0.572
- relative viability ([7]; first compound 0.3162 µM): 0.493
- relative viability ([7]; first compound 1 µM): 0.554
- relative viability ([8]; first compound 0.01 µM): 0.533
- relative viability ([8]; first compound 0.03162 µM): 0.52
- relative viability ([8]; first compound 0.1 µM): 0.528
- relative viability ([8]; first compound 0.3162 µM): 0.508
- relative viability ([8]; first compound 1 µM): 0.513
- relative viability ([9]; first compound 0.01 µM): 0.493
- relative viability ([9]; first compound 0.03162 µM): 0.482
- relative viability ([9]; first compound 0.1 µM): 0.437
- relative viability ([9]; first compound 0.3162 µM): 0.5
- relative viability ([9]; first compound 1 µM): 0.446
- relative viability ([10]; first compound 0.01 µM): 0.473
- relative viability ([10]; first compound 0.03162 µM): 0.425
- relative viability ([10]; first compound 0.1 µM): 0.368
- relative viability ([10]; first compound 0.3162 µM): 0.391
- relative viability ([10]; first compound 1 µM): 0.347
- relative viability ([11]; first compound 0.01 µM): 0.302
- relative viability ([11]; first compound 0.03162 µM): 0.31
- relative viability ([11]; first compound 0.1 µM): 0.274
- relative viability ([11]; first compound 0.3162 µM): 0.325
- relative viability ([11]; first compound 1 µM): 0.325
- relative viability ([12]; first compound 0.01 µM): 0.178
- relative viability ([12]; first compound 0.03162 µM): 0.18
- relative viability ([12]; first compound 0.1 µM): 0.198
- relative viability ([12]; first compound 0.3162 µM): 0.215
- relative viability ([12]; first compound 1 µM): 0.135
- relative viability ([13]; first compound 0.01 µM): 0.41
- relative viability ([13]; first compound 0.03162 µM): 0.468
- relative viability ([13]; first compound 0.1 µM): 0.438
- relative viability ([13]; first compound 0.3162 µM): 0.409
- relative viability ([13]; first compound 1 µM): 0.386
- relative viability ([14]; first compound 0.01 µM): 0.393
- relative viability ([14]; first compound 0.03162 µM): 0.414
- relative viability ([14]; first compound 0.1 µM): 0.414
- relative viability ([14]; first compound 0.3162 µM): 0.379
- relative viability ([14]; first compound 1 µM): 0.488
- relative viability ([15]; first compound 0.01 µM): 0.299
- relative viability ([15]; first compound 0.03162 µM): 0.295
- relative viability ([15]; first compound 0.1 µM): 0.314
- relative viability ([15]; first compound 0.3162 µM): 0.266
- relative viability ([15]; first compound 1 µM): 0.234
- relative viability ([16]; first compound 0.03162 µM): 0.473
- relative viability ([16]; first compound 0.1 µM): 0.567
- relative viability ([16]; first compound 0.3162 µM): 0.507
- relative viability ([16]; first compound 1 µM): 0.517
- relative viability ([17]; first compound 0.01 µM): 0.309
- relative viability ([17]; first compound 0.03162 µM): 0.294
- relative viability ([17]; first compound 0.1 µM): 0.32
- relative viability ([17]; first compound 0.3162 µM): 0.347
- relative viability ([17]; first compound 1 µM): 0.324
- relative viability ([18]; first compound 0.01 µM): 0.452
- relative viability ([18]; first compound 0.03162 µM): 0.451
- relative viability ([18]; first compound 0.1 µM): 0.451
- relative viability ([18]; first compound 0.3162 µM): 0.459
- relative viability ([18]; first compound 1 µM): 0.415
- relative viability ([19]; first compound 0.01 µM): 0.163
- relative viability ([19]; first compound 0.03162 µM): 0.127
- relative viability ([19]; first compound 0.1 µM): 0.132
- relative viability ([19]; first compound 0.3162 µM): 0.133
- relative viability ([19]; first compound 1 µM): 0.126
- relative viability ([20]; first compound 0.01 µM): 0.234
- relative viability ([20]; first compound 0.03162 µM): 0.25
- relative viability ([20]; first compound 0.1 µM): 0.22
- relative viability ([20]; first compound 0.3162 µM): 0.177
- relative viability ([20]; first compound 1 µM): 0.158
- relative viability ([21]; first compound 0.01 µM): 0.631
- relative viability ([21]; first compound 0.03162 µM): 0.59
- relative viability ([21]; first compound 0.1 µM): 0.593
- relative viability ([21]; first compound 0.3162 µM): 0.583
- relative viability ([21]; first compound 1 µM): 0.595
- relative viability ([22]; first compound 0.01 µM): 0.663
- relative viability ([22]; first compound 0.03162 µM): 0.593
- relative viability ([22]; first compound 0.1 µM): 0.709
- relative viability ([22]; first compound 0.3162 µM): 0.651
- relative viability ([22]; first compound 1 µM): 0.643

Source: the supplement of paper PMC10307832
